Results on 14 compounds are retold here after patent US11173151B2, “Substituted triazole derivatives and uses thereof” (BAYER AKTIENGESELLSCHAFT, priority 2017, dated 2021).

The target of assay [1] is T1, human V2 receptor (Homo sapiens, UniProt P30518).
T1 construct: expressed in transfected cells; host or cells: CHO K1 (ATCC) expressing firefly luciferase under a CRE-responsive promoter
In words: Cellular in vitro assay for determining vasopressin receptor activity, V2 receptor cell line (CHO, CRE-luciferase). It counts as cell-based. As to conditions: CHO cell line transfected with human V2 receptor; [Arg8]-vasopressin at EC50 concentration, 3 hours; read-out: IC50 hV2.

Assay [2] addresses T2, human V1a receptor (Homo sapiens, UniProt P37288).
T2 construct: expressed in transfected cells; host or cells: CHO K1 (ATCC), also stably transfected with a modified aequorin
The experiment in a line: Cellular in vitro assay for determining vasopressin receptor activity, V1a receptor cell line (CHO, aequorin luminescence). As to conditions: for IC50: CHO cell line transfected with human V1a receptor, [Arg]-vasopressin at EC50 concentration, read-out: IC50 hV1a; for ratio IC50 hV2/hV1a: selectivity ratio IC50 hV2 / IC50 hV1a. It counts as cell-based. In short, it runs like this: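 CHO K1/aequorin cells, coelenterazine 5 μg/ml o/n; cpd 10 min; [Arg]-vasopressin at EC50; luminescence read immediately; IC50.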

T2 sequence (P37288 whole entry): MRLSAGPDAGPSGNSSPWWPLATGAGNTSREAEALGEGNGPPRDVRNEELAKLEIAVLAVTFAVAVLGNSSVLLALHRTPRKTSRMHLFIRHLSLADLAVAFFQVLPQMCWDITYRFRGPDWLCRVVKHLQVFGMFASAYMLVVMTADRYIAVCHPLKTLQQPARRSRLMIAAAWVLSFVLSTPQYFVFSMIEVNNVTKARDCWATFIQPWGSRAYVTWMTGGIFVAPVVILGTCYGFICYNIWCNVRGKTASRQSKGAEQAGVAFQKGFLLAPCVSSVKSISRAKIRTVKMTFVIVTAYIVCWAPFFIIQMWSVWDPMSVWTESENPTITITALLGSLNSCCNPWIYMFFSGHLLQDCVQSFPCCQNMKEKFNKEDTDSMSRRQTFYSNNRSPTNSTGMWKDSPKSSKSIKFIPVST
T1 sequence (P30518 whole entry): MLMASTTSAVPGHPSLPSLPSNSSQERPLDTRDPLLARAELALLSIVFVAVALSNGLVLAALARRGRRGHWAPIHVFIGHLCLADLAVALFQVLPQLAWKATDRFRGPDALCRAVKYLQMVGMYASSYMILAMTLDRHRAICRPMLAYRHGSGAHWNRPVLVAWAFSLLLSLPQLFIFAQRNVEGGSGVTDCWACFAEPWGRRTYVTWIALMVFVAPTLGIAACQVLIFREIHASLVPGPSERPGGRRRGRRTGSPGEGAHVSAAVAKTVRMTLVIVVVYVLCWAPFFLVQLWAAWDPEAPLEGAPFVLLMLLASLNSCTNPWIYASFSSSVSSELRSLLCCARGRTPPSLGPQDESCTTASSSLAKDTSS

In the case of `Cc1ccc(F)cc1NC(=O)c1ccccc1-n1cnc(Cn2nc(-c3ccc(Cl)cc3)n(C[C@H](O)C(F)(F)F)c2=O)n1` [Example 229, 2-[3-({3-(4-Chlorophenyl)-5-oxo-4-[(2S)-3,3,3-trifluoro-2-hydroxypropyl]-4,5-dihydro-1H-1,2,4-triazol-1-yl}methyl)-1H-1,2,4-triazol-1-yl]-N-(5-fluoro-2-methylphenyl)benzamide], the half-maximal inhibitory concentration (IC50) (commonly the concentration needed to halve the response being measured) in assay [1] was found to be 49.5 nM. In assay [2], the IC50 amounted to 2.35 nM and the “ratio IC50 hV2/hV1a” value is 21.1.

Take `Cc1ccnc(NC(=O)c2ccccc2-n2cnc(Cn3nc(-c4ccc(Cl)cc4)n(C[C@H](O)C(F)(F)F)c3=O)n2)c1` [Example 230, 2-[3-({3-(4-Chlorophenyl)-5-oxo-4-[(2S)-3,3,3-trifluoro-2-hydroxypropyl]-4,5-dihydro-1H-1,2,4-triazol-1-yl}methyl)-1H-1,2,4-triazol-1-yl]-N-(4-methylpyridin-2-yl)benzamide]: the half-inhibitory concentration (IC50) was 56.5 nM in assay [1] and 8.5 nM in assay [2]. Further, the “ratio IC50 hV2/hV1a” value in assay [2] was found to be 6.6.

In the case of `CONC(=O)c1ccccc1-n1cnc(Cn2nc(-c3ccc(Cl)cc3)n(C[C@H](O)C(F)(F)F)c2=O)n1` [Example 232, 2-[3-({3-(4-Chlorophenyl)-5-oxo-4-[(2S)-3,3,3-trifluoro-2-hydroxypropyl]-4,5-dihydro-1H-1,2,4-triazol-1-yl}methyl)-1H-1,2,4-triazol-1-yl]-N-methoxybenzamide], in assay [1], the half-maximal inhibitory concentration (IC50) was found to be 535 nM. Besides, in assay [2], the IC50 was determined as 2.2 nM and the “ratio IC50 hV2/hV1a” value is recorded as 243.2.

On to `N[C@H]1CCCC[C@@H]1NC(=O)c1ccccc1-n1cnc(Cn2nc(-c3ccc(Cl)cc3)n(C[C@H](O)C(F)(F)F)c2=O)n1` [Example 233, N-[(1S,2S)-2-Aminocyclohexyl]-2-[3-({3-(4-chlorophenyl)-5-oxo-4-[(2S)-3,3,3-trifluoro-2-hydroxypropyl]-4,5-dihydro-1H-1,2,4-triazol-1-yl}methyl)-1H-1,2,4-triazol-1-yl]benzamide], for which the IC50 in assay [1] was 6700 nM. Further, in assay [2], the 50% inhibitory concentration (IC50) was 14.4 nM and the “ratio IC50 hV2/hV1a” value is listed as 463.7.

As for `N[C@@H]1CCCC[C@@H]1NC(=O)c1ccccc1-n1cnc(Cn2nc(-c3ccc(Cl)cc3)n(C[C@H](O)C(F)(F)F)c2=O)n1` [Example 234, N-[(1S,2R)-2-Aminocyclohexyl]-2-[3-({3-(4-chlorophenyl)-5-oxo-4-[(2S)-3,3,3-trifluoro-2-hydroxypropyl]-4,5-dihydro-1H-1,2,4-triazol-1-yl}methyl)-1H-1,2,4-triazol-1-yl]benzamide], the IC50 in assay [1] was determined as 2900 nM. Also, in assay [2], the half-inhibitory concentration (IC50) came out at 6.95 nM and the “ratio IC50 hV2/hV1a” value is recorded as 417.3.

For the compound `O=C(NCc1ccc(F)cc1)c1ccccc1-n1cnc(Cn2nc(-c3ccc(Cl)cc3)n(C[C@H](O)C(F)(F)F)c2=O)n1` [Example 235, 2-[3-({3-(4-Chlorophenyl)-5-oxo-4-[(2S)-3,3,3-trifluoro-2-hydroxypropyl]-4,5-dihydro-1H-1,2,4-triazol-1-yl}methyl)-1H-1,2,4-triazol-1-yl]-N-(4-fluorobenzyl)benzamide], the IC50 in assay [1] was 355 nM. Also, in assay [2], the half-inhibitory concentration (IC50) turned out to be 8.7 nM and the “ratio IC50 hV2/hV1a” value was 40.8.

Regarding `O=C(NCc1cccc(F)c1)c1ccccc1-n1cnc(Cn2nc(-c3ccc(Cl)cc3)n(C[C@H](O)C(F)(F)F)c2=O)n1` [Example 236, 2-[3-({3-(4-Chlorophenyl)-5-oxo-4-[(2S)-3,3,3-trifluoro-2-hydroxypropyl]-4,5-dihydro-1H-1,2,4-triazol-1-yl}methyl)-1H-1,2,4-triazol-1-yl]-N-(3-fluorobenzyl)benzamide], in assay [1], the 50% inhibitory concentration (IC50) was determined as 340 nM. Also, in assay [2], the IC50 was determined as 7.05 nM and the “ratio IC50 hV2/hV1a” value is given as 48.2.

In the case of `C[C@H](NC(=O)c1ccccc1-n1cnc(Cn2nc(-c3ccc(Cl)cc3)n(C[C@H](O)C(F)(F)F)c2=O)n1)C(N)=O` [Example 237, N-[(2S)-1-Amino-1-oxopropan-2-yl]-2-[3-({3-(4-chlorophenyl)-5-oxo-4-[(2S)-3,3,3-trifluoro-2-hydroxypropyl]-4,5-dihydro-1H-1,2,4-triazol-1-yl}methyl)-1H-1,2,4-triazol-1-yl]benzamide], the IC50 in assay [1] is 445 nM. In assay [2], the half-inhibitory concentration (IC50) is 15.5 nM and the “ratio IC50 hV2/hV1a” value is recorded as 28.7.

For the compound `Cc1nnc(NC(=O)c2ccccc2-n2cnc(Cn3nc(-c4ccc(Cl)cc4)n(C[C@H](O)C(F)(F)F)c3=O)n2)s1` [Example 238, 2-[3-({3-(4-Chlorophenyl)-5-oxo-4-[(2S)-3,3,3-trifluoro-2-hydroxypropyl]-4,5-dihydro-1H-1,2,4-triazol-1-yl}methyl)-1H-1,2,4-triazol-1-yl]-N-(5-methyl-1,3,4-thiadiazol-2-yl)benzamide], the IC50 in assay [1] was 44.5 nM. Besides, in assay [2], the half-inhibitory concentration (IC50) stood at 13.5 nM and the “ratio IC50 hV2/hV1a” value is on record as 3.3.

As to `O=C(NCc1ccc(F)c(F)c1)c1ccccc1-n1cnc(Cn2nc(-c3ccc(Cl)cc3)n(C[C@H](O)C(F)(F)F)c2=O)n1` [Example 239, 2-[3-({3-(4-Chlorophenyl)-5-oxo-4-[(2S)-3,3,3-trifluoro-2-hydroxypropyl]-4,5-dihydro-1H-1,2,4-triazol-1-yl}methyl)-1H-1,2,4-triazol-1-yl]-N-(3,4-difluorobenzyl)benzamide], the 50% inhibitory concentration (IC50) in assay [1] was determined as 240 nM. Moreover, in assay [2], the 50% inhibitory concentration (IC50) was 7.35 nM and the “ratio IC50 hV2/hV1a” value is recorded as 32.7.

Consider `Cc1ccnc(NC(=O)c2ccccc2-n2cnc(Cn3nc(-c4ccc(Cl)cc4)n(C[C@H](O)C(F)(F)F)c3=O)n2)n1` [Example 240, 2-[3-({3-(4-Chlorophenyl)-5-oxo-4-[(2S)-3,3,3-trifluoro-2-hydroxypropyl]-4,5-dihydro-1H-1,2,4-triazol-1-yl}methyl)-1H-1,2,4-triazol-1-yl]-N-(4-methylpyrimidin-2-yl)benzamide], for which the IC50 was 300 nM in assay [1] and 12.5 nM in assay [2]. Besides, the “ratio IC50 hV2/hV1a” value in assay [2] turned out to be 24.0.

On to `O=C(NCCF)c1ccccc1-n1cnc(Cn2nc(-c3ccc(Cl)cc3)n(C[C@H](O)C(F)(F)F)c2=O)n1` [Example 241, 2-[3-({3-(4-Chlorophenyl)-5-oxo-4-[(2S)-3,3,3-trifluoro-2-hydroxypropyl]-4,5-dihydro-1H-1,2,4-triazol-1-yl}methyl)-1H-1,2,4-triazol-1-yl]-N-(2-fluoroethyl)benzamide], for which the IC50 in assay [1] was 73.5 nM; in assay [2], 2.2 nM. Moreover, the “ratio IC50 hV2/hV1a” value in assay [2] amounted to 33.4.

In the case of `O=C(NCc1c(F)cccc1F)c1ccccc1-n1cnc(Cn2nc(-c3ccc(Cl)cc3)n(C[C@H](O)C(F)(F)F)c2=O)n1` [Example 242, 2-[3-({3-(4-Chlorophenyl)-5-oxo-4-[(2S)-3,3,3-trifluoro-2-hydroxypropyl]-4,5-dihydro-1H-1,2,4-triazol-1-yl}methyl)-1H-1,2,4-triazol-1-yl]-N-(2,6-difluorobenzyl)benzamide], in assay [1], the IC50 was determined as 126 nM. Further, in assay [2], the half-inhibitory concentration (IC50) is 5.7 nM and the “ratio IC50 hV2/hV1a” value is given as 22.2.

Regarding `O=C(NCc1cc(F)cc(F)c1)c1ccccc1-n1cnc(Cn2nc(-c3ccc(Cl)cc3)n(C[C@H](O)C(F)(F)F)c2=O)n1` [Example 243, 2-[3-({3-(4-Chlorophenyl)-5-oxo-4-[(2S)-3,3,3-trifluoro-2-hydroxypropyl]-4,5-dihydro-1H-1,2,4-triazol-1-yl}methyl)-1H-1,2,4-triazol-1-yl]-N-(3,5-difluorobenzyl)benzamide], the IC50 in assay [1] came out at 540 nM. Further, in assay [2], the concentration for half-maximal inhibition (IC50) worked out at 22.5 nM and the “ratio IC50 hV2/hV1a” value amounted to 24.0.
